Experimental data published in PMC4257840 (Journal of Medicinal Chemistry, 2014).

Legend:
recombinant human Cat S = recombinant human Cat S (Homo sapiens, UniProt P25774); assay: Cathepsin S inhibition assay; format: biochemical; conditions: Table S1 counter-screening; read-out: Cathepsin S IC50
Procedure: In all cases, for reactions involving inhibitors, the amount of reaction buffer was adjusted to 60 μL, the inhibitor added as a 10 μL aliquot, and incubated for 20 min with the enzyme prior to reaction start.

[1] = Plasma protein binding, Rapid Equilibrium Dialysis; format: in vitro ADME; conditions: both sexes, Sprague Dawley, plasma (EDTA K2, pooled), rat plasma, 4 h at 37 °C, read-out: PPB (converted)
Procedure: Appendix 2. Pharmaco kinetics an d P l a s ma Protein Binding […]
Plasma Protein Binding Assay. PPB was determined with a Rapid Equilibrium Dialysis device using 8 kDa molecular weight cut-off inserts (Fisher Scientific UK Ltd, Leicest ershire, UK) as described b y the manufacturer. R at (Sprague Dawl e y strain) plasma EDTA K2 (mixed gender, pooled, SeraLab, West Sussex, UK) was thawed and centrifuged at 13,000 x g for 10 min to remove precipitates before being spiked with compounds (5 µM). The concentrations of compounds in the plasma and buffer chambers were determined b y LC -MS-MS (AB Sciex 3200 QTrap) anal ysis after 4 h incubation at 37 °C. Binding was calculated from the concentration percentage in both chambers as shown below. Assays were p erfo rmed in replicate and the data

[2] = target: T1, cathepsin H purified from human liver (Homo sapiens, UniProt P09668); assay: Protease counter-screening: Cathepsin H; format: biochemical
T1 construct: Tests were performed using cathepsin H purified from human liver; from tissue; host or cells: human liver
T1 sequence (P09668 98-335): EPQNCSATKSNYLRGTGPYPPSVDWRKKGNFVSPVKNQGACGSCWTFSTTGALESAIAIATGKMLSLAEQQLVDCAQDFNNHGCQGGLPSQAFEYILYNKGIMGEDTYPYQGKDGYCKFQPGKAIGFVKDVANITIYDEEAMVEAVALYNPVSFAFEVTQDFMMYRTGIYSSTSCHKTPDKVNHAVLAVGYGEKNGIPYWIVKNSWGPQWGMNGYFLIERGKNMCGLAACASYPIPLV
Procedure: Cathep sin H: Tests were performed using cathepsin H purified from human liver. Test compound or vehicle was pre -incubated with 3.3 mU/mL enz yme in sodium acetate buffer pH 5.5 for 15 min at 25 °C. The reaction was initiated by addition of 20 µM L-RR- AMC for another

[3] = target: T2, Human recombinant cathepsin L2 (Homo sapiens, UniProt O60911); assay: Protease counter-screening: Cathepsin L2; format: biochemical
T2 construct: host or cells: NS0 cells
T2 sequence (O60911 114-334): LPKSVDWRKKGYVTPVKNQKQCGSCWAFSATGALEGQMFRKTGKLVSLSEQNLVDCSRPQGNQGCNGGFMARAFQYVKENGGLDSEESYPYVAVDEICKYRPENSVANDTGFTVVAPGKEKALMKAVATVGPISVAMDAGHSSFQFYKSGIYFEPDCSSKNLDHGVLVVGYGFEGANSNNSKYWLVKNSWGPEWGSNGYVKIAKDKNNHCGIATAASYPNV
Procedure: (§1) Appendix 7. Protease Counter -Screening
(§2) Protease counter-screeni ng was performed using the methods described below. Initial screening was conducted in duplicate using a single test substance concentration of 10 µ M .
(§3) Additional assays were conducted in replicate for selected pairin gs of test s ubstance and enz yme in order to enable the determination of IC50 values using conventional procedures.
(§4) Determination of K i was made using the Batch K i program (Biokin Ltd, Pullman, WA) to derive values from the Morrison equation: […]
(§5) Where [E ] is the active enz yme concentration, Kiapp is the apparent inhibition const ant, v 0 is the control velocit y in the absence of inhibitors, vb is the background velocity, v is the initial reaction velocit y in the presence of inhibitor, and I is the inhibitor concentration.Thence:
(§6) Where [S ] is the substrate concentration and KM is the Michealis constant.
(§7) Caspase 1: Activity against human recombinant caspase 1 expressed in E. coli was tested using Ac-YVAD- AMC as the substrate. Test compound or vehicle was pre- incubated with 600 […]
(§8) followed by excitation/emission at 485/535 nm. […]
(§9) AMC formation was read at 360 nm/465 nm.
(§10) Cathepsin L2: Human recombinant cathepsin L2 expressed in NS0 cells was used as the enzyme source. […] Form ation of AMC was measured at 360 […]
(§11) The amount of AMC formed was read spectrofluorimetricall y at 360 nm/465 nm. […]

human plasma thrombin = target: T3, human plasma thrombin (Homo sapiens, UniProt P00734); assay: Protease counter-screening: Thrombin; format: biochemical; conditions: test concentration 0.3-100 µM
T3 construct: thrombin in modified HEPES buffer pH 7.5; from tissue; host or cells: human plasma
Procedure: as §1, §2, §3, §4, §5, §6, §7, §8, §9, §10, §11

[4] = target: T4, Factor Xa from human plasma (Homo sapiens, UniProt P00742); assay: Protease counter-screening: Factor Xa; format: biochemical
T4 construct: containing 0.4 nM Factor Xa from human plasma; from tissue; host or cells: human plasma
T4 sequence (P00742 235-488 limits assumed): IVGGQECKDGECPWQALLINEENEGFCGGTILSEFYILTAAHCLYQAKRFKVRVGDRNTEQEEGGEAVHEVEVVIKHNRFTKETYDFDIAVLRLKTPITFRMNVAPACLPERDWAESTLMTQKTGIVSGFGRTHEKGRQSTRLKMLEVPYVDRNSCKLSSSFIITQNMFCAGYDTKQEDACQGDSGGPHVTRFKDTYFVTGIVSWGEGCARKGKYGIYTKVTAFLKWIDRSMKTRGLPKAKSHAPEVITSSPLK
T4 sequence (P00742 41-179 limits assumed): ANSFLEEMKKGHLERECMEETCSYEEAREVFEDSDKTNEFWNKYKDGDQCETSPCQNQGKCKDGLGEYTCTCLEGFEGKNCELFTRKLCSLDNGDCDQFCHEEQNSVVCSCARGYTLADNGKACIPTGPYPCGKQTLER
Procedure: as §1, §2, §3, §4, §5
(§12) Where [S ] is the substrate concentration and KM is the Michealis constant. […]
(§13) Test compound or vehicle was pre- incubated with 600 […]
(§14) The reaction was […]
initiated by addition of 1 µM N-CH3-SO2-D-FGR-pNA for another 120 min incubation period.
The amount of pNA formed was read spectrophotometricall y at 405 nm.
(§15) Factor Xa: Test compound or vehicle was pre -incubated for 15 min at 25 °C in modified 50 mM Tris-HCl buffer pH 7.6 containing 0.4 nM Factor Xa from human plasma. The reaction was initiated by addition of 0.3 mM N-a-Z-D-RGR-pNA for another 60 min incubation period. […]

[5] = target: T5, Human recombinant dipeptidyl peptidase IV (Homo sapiens, UniProt P27487); assay: Protease counter-screening: Dipeptidyl Dipeptidase IV; format: biochemical
T5 construct: host or cells: insect Sf9 cells
T5 sequence (P27487 whole entry): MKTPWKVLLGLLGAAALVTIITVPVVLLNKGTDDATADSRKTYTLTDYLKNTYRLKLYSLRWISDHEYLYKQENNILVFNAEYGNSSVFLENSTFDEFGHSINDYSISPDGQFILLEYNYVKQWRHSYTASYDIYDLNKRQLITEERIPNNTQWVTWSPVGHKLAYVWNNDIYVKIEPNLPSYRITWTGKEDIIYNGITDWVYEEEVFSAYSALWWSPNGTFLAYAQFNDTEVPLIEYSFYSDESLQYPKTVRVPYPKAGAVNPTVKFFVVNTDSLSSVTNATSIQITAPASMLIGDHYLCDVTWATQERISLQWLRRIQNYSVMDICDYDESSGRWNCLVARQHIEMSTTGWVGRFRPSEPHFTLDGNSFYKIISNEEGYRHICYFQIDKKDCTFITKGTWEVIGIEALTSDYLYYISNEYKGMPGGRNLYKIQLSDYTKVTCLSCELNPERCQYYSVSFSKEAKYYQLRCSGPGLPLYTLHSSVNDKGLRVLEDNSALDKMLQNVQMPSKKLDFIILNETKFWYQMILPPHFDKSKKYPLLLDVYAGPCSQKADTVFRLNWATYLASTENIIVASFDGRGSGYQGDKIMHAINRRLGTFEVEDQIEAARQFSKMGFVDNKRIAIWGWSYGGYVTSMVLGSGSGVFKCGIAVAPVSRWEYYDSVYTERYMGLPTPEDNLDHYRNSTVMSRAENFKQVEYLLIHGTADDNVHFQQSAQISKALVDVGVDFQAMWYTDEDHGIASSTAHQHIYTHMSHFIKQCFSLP
Procedure: as §1, §2, §3, §4, §5, §12, §13, §14
(§16) initiated by addition of 1 µM N-CH3-SO2-D-FGR-pNA for another 120 min incubation period. […]
as §15, with “period. The amount of pNA form ed was measur ed at 405 nm.” for “period.”

Human recombinant MMP-3 = target: T6, Human recombinant MMP-3 (Homo sapiens, UniProt P08254); assay: Protease counter-screening: MMP-3; format: biochemical
T6 construct: host or cells: E. coli
T6 sequence (P08254 100-477): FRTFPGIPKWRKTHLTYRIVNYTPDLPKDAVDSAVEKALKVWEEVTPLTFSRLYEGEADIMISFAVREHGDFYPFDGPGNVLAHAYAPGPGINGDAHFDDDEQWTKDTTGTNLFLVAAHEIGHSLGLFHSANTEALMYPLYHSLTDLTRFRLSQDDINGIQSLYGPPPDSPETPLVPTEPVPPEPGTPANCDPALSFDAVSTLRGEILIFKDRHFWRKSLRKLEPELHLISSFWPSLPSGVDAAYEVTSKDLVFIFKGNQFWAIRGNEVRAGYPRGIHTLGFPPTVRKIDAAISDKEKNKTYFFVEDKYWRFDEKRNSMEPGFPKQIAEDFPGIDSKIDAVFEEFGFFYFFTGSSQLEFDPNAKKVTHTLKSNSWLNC
Procedure: as §1, §2, §3, §4, §5, §12, §13, §14, §16
Matrix metalloprotease-3 (MMP-3 ): Human recombinant MMP-3 proenz yme expressed in E. coli was activated with 4-aminophen yl mercuric acetate (APMA) for 60 min at 37 °C. […] The amount of MCA-PLG formed was read spectrofluorimetricall y at 340 nm/400 nm.

[6] = test system: nonsensitized rats challenged with a natural mixture of HDM allergens; conditions: i.t. aerosol typically 60-360 min prior to allergen challenge, unsensitised BN rats

recombinant human Cat S, sequence (P25774 115-331): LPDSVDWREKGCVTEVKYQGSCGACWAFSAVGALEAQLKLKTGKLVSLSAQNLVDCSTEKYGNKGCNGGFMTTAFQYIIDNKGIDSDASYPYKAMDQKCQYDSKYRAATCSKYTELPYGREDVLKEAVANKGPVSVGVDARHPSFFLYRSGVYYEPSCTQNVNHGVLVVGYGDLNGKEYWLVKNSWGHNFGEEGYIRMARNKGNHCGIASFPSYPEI

CC(C)[C@H](NC(=O)[C@H](C)NC(=O)[C@@H](NC(=O)c1ccccc1)C(C)(C)C)C(=O)C(=O)NCc1ccccc1 [Compound 38, N-{(S)-1-[(S)-1-((S)-1-Benzylaminooxalyl-2-methyl-propylcarbamoyl)-ethylcarbamoyl]-2,2-dimethyl-propyl}-benzamide]
IC50 (recombinant human Cat S): 0.17 µM | fraction unbound at 4 h, 5 µM [1]: 0.04 | inhibition at 10 µM [2]: 13% | IC50 [3]: 3.53 µM | IC50 (human plasma thrombin): > 100 µM | inhibition at 10 µM [4]: 7% | inhibition at 10 µM [5]: 0% | inhibition at 10 µM (Human recombinant MMP-3): 0% | duration of protection: trend of inhibition of eosinophil recruitment with increasing pre-treatment interval [6]: rise to well-maintained
